# Reference: ChEMBL document CHEMBL1201862, “PubChem BioAssay data set” (2004)
#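 Briefly, cells in 96-well plates were exposed to five compound concentrations for 48 h, and endpoints were estimated by linear interpolation. GI50 = concentration required for 50% inhibition of growth.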 Calls of active or inactive are those of the source. Rule as the data show it: active = GI50 up to about 1.1 µM and inactive = higher.
# Columns and labels:
# Assay in all cases: growth of human tumour cells (NCI), 48 h
# [1] = system: A549
# [2] = system: ACHN
# [3] = system: BT-549
# [4] = system: M14
# [5] = system: MDA-MB-435
# [6] = system: MOLT-4
# [7] = system: Malme-3M
# [8] = system: OVCAR-3
# [9] = system: OVCAR-4
# [10] = system: OVCAR-5
# [11] = system: OVCAR-8
# [12] = system: PC-3
# [13] = system: RXF 393
# [14] = system: SK-MEL-2
# [15] = system: SK-MEL-5
# [16] = system: SK-OV-3
# [17] = system: SR
# [18] = system: SW-620
# [19] = system: T47D
# [20] = system: UACC-62
Compound,GI50 [1],GI50 [2],GI50 [3],GI50 [4],GI50 [5],GI50 [6],GI50 [7],GI50 [8],GI50 [9],GI50 [10],GI50 [11],GI50 [12],GI50 [13],GI50 [14],GI50 [15],GI50 [16],GI50 [17],GI50 [18],GI50 [19],GI50 [20]
O=C(O)CCc1ccc(-c2ccccc2)[nH]1,> 100 µM (inactive),> 100 µM (inactive),> 100 µM (inactive),> 100 µM (inactive),> 100 µM (inactive),> 100 µM (inactive),> 100 µM (inactive),> 100 µM (inactive),> 100 µM (inactive),> 100 µM (inactive),> 100 µM (inactive),> 100 µM (inactive),> 100 µM (inactive),> 100 µM (inactive),> 100 µM (inactive),> 100 µM (inactive),> 100 µM (inactive),> 100 µM (inactive),> 100 µM (inactive),> 100 µM (inactive)
CC(C)(CCC(C)(C)c1ccccc1)c1ccccc1,28.8 µM (inactive),17.8 µM (inactive),20.2 µM (inactive),18.7 µM (inactive),21.9 µM (inactive),18.5 µM (inactive),16 µM (inactive),16.3 µM (inactive),16.4 µM (inactive),18.8 µM (inactive),27 µM (inactive),30.8 µM (inactive),12.9 µM (inactive),16.6 µM (inactive),14.4 µM (inactive),27.1 µM (inactive),21 µM (inactive),17.2 µM (inactive),16.7 µM (inactive),19 µM (inactive)
Cc1ccc2nc(-c3ccc(N)c(Br)c3)sc2c1,29 µM (inactive),36.3 µM (inactive),14.9 µM (inactive),26.7 µM (inactive),5.4 µM (inactive),4.33 µM (inactive),> 100 µM (inactive),10.1 µM (inactive),33.5 µM (inactive),47.3 µM (inactive),48.2 µM (inactive),22.2 µM (inactive),18.2 µM (inactive),27.9 µM (inactive),79.1 µM (inactive),22.5 µM (inactive),11 µM (inactive),–,0.655 µM (active),23.8 µM (inactive)
COC(=O)c1cc2c3c(ccc2[nH]1)N(C(=O)c1cc2cc(OC)c(OC)c(OC)c2[nH]1)CC3CCl (stereo not given),5.37 µM (inactive),5.62 µM (inactive),3.51 µM (inactive),> 27.5 µM (inactive),13.7 µM (inactive),1.57 µM (inactive),8.59 µM (inactive),> 24.4 µM (inactive),8.34 µM (inactive),> 100 µM (inactive),12.6 µM (inactive),4.31 µM (inactive),5.51 µM (inactive),> 100 µM (inactive),2.23 µM (inactive),> 100 µM (inactive),1.1 µM (active),5.48 µM (inactive),> 100 µM (inactive),4.54 µM (inactive)
C=CCC1C(=O)Nc2cccc3ncn(c23)C1=O (stereo not given),> 100 µM (inactive),> 100 µM (inactive),> 100 µM (inactive),> 100 µM (inactive),> 100 µM (inactive),> 100 µM (inactive),> 100 µM (inactive),> 100 µM (inactive),> 100 µM (inactive),> 100 µM (inactive),> 100 µM (inactive),> 100 µM (inactive),> 100 µM (inactive),> 100 µM (inactive),> 100 µM (inactive),> 100 µM (inactive),> 100 µM (inactive),> 100 µM (inactive),> 100 µM (inactive),> 100 µM (inactive)
COc1c(C)c(OC)c(C(=O)CC(C)C)c(OC)c1C,> 100 µM (inactive),> 100 µM (inactive),> 100 µM (inactive),> 100 µM (inactive),> 100 µM (inactive),43.7 µM (inactive),> 100 µM (inactive),> 100 µM (inactive),23.6 µM (inactive),> 100 µM (inactive),> 100 µM (inactive),52.4 µM (inactive),> 100 µM (inactive),> 100 µM (inactive),40.3 µM (inactive),> 100 µM (inactive),21.4 µM (inactive),> 100 µM (inactive),68.1 µM (inactive),> 100 µM (inactive)
O=C(NCCC(F)(F)C(F)(F)C(F)(F)C(F)(F)F)NC1OC(CO)C(O)C(O)C1O (stereo not given),> 100 µM (inactive),> 100 µM (inactive),> 100 µM (inactive),> 100 µM (inactive),> 100 µM (inactive),> 100 µM (inactive),> 100 µM (inactive),> 100 µM (inactive),> 100 µM (inactive),> 100 µM (inactive),–,> 100 µM (inactive),> 100 µM (inactive),> 100 µM (inactive),> 100 µM (inactive),> 100 µM (inactive),> 100 µM (inactive),> 100 µM (inactive),> 100 µM (inactive),> 100 µM (inactive)
CN(C(=O)c1cc2c(s1)sc1c(=O)n(C)c3ccccc3c12)c1ccccc1,8.55 µM (inactive),5.46 µM (inactive),> 100 µM (inactive),50.9 µM (inactive),0.828 µM (active),3.63 µM (inactive),6.56 µM (inactive),7.83 µM (inactive),42.7 µM (inactive),63.7 µM (inactive),11.2 µM (inactive),4.68 µM (inactive),21.8 µM (inactive),3.77 µM (inactive),3.56 µM (inactive),22.2 µM (inactive),1.93 µM (inactive),–,28.8 µM (inactive),6.03 µM (inactive)
CCc1c[n+]2c(cc1C1=CN3c4ccccc4[C@]45CCN6C/C(=C/CO)[C@H](C[C@H]64)[C@@H]([C@@H]1O)[C@H]35)-c1[nH]c3ccccc3c1CC2,> 50 µM (inactive),> 50 µM (inactive),> 50 µM (inactive),> 50 µM (inactive),> 50 µM (inactive),> 50 µM (inactive),> 50 µM (inactive),> 50 µM (inactive),> 50 µM (inactive),> 50 µM (inactive),> 50 µM (inactive),> 50 µM (inactive),> 50 µM (inactive),> 50 µM (inactive),> 50 µM (inactive),> 50 µM (inactive),> 50 µM (inactive),> 50 µM (inactive),> 50 µM (inactive),> 50 µM (inactive)
CC(=O)Nc1cccc(N2C(=O)/C(=C\c3cccc(Oc4ccccc4)c3)S(=O)(=O)C2c2ccccc2)c1 (stereo not given),> 100 µM (inactive),> 100 µM (inactive),69.8 µM (inactive),90.6 µM (inactive),34 µM (inactive),16.1 µM (inactive),> 100 µM (inactive),45.4 µM (inactive),25.2 µM (inactive),> 100 µM (inactive),37.1 µM (inactive),64.3 µM (inactive),> 100 µM (inactive),55.6 µM (inactive),76.6 µM (inactive),> 100 µM (inactive),15.9 µM (inactive),37.8 µM (inactive),25 µM (inactive),43.6 µM (inactive)
N=C(N)NS(=O)(=O)c1ccc(NC(=O)c2ccc3nc4ccccc4c(N)c3c2)cc1,> 100 µM (inactive),> 100 µM (inactive),> 100 µM (inactive),> 100 µM (inactive),> 100 µM (inactive),> 100 µM (inactive),> 100 µM (inactive),> 100 µM (inactive),> 100 µM (inactive),> 100 µM (inactive),> 100 µM (inactive),> 100 µM (inactive),> 100 µM (inactive),> 100 µM (inactive),> 100 µM (inactive),> 100 µM (inactive),> 100 µM (inactive),> 100 µM (inactive),> 100 µM (inactive),> 100 µM (inactive)
O=c1[nH]nc(Cc2ccccc2)n1/N=C/c1ccccc1Cl,> 100 µM (inactive),> 100 µM (inactive),> 100 µM (inactive),–,> 100 µM (inactive),> 100 µM (inactive),> 100 µM (inactive),> 100 µM (inactive),> 100 µM (inactive),> 100 µM (inactive),> 100 µM (inactive),> 100 µM (inactive),3.56 µM (inactive),> 100 µM (inactive),> 100 µM (inactive),> 100 µM (inactive),> 100 µM (inactive),> 100 µM (inactive),> 100 µM (inactive),> 100 µM (inactive)
C[C@@H]1[C@@H](c2ccccc2)O[B-](c2ccccc2)(c2ccccc2)N1C,58.6 µM (inactive),33.1 µM (inactive),30.7 µM (inactive),28.4 µM (inactive),35.4 µM (inactive),43.7 µM (inactive),29.5 µM (inactive),35.9 µM (inactive),72.1 µM (inactive),74.3 µM (inactive),72.3 µM (inactive),17.5 µM (inactive),37.5 µM (inactive),49.5 µM (inactive),30 µM (inactive),55.3 µM (inactive),21.7 µM (inactive),50.8 µM (inactive),38.9 µM (inactive),41 µM (inactive)
O=c1n(CC2CO2)c(=O)n(CC2CO2)c(=O)n1CC1CO1 (stereo not given) [TEROXIRONE],13.7 µM (inactive),1.36 µM (inactive),11.5 µM (inactive),9.27 µM (inactive),17.9 µM (inactive),2.35 µM (inactive),25.4 µM (inactive),32.7 µM (inactive),45.2 µM (inactive),67.8 µM (inactive),33.3 µM (inactive),25 µM (inactive),37 µM (inactive),90.2 µM (inactive),–,36.1 µM (inactive),1.25 µM (inactive),34 µM (inactive),17.3 µM (inactive),2.49 µM (inactive)
